Results taken from PubChem BioAssay AID1963858 (Molecular Pharmacology Branch, DTP, NCI, 2024).

Tested on: HOP-62 multicell spheroids with HUVEC/MSC, viability
Test: Anticancer human tumor HOP-62 cell line growth inhibition [KRAS2];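 also: viability read after a week of compound exposure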;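 as to viability, T/C: 100% = DMSO vehicle-treated spheroids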
Conditions: for IC50: curve of first compound; for viability, T/C: stronger effect = lower value
How it was run: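 Combination screen of spheroid viability in tumor-cell co-cultures with endothelial (HUVEC) and mesenchymal stem cell stroma. Each agent was tested in half-log dilutions, topping at clinical Cmax or at 10 microM without a known Cmax.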

[1] = second compound 0.1 µM, first compound 0.0316 µM
[2] = second compound 0.1 µM, first compound 0.1 µM
[3] = second compound 0.1 µM, first compound 0.316 µM
[4] = second compound 0.1 µM, first compound 1 µM
[5] = second compound 0.316 µM, first compound 0.0316 µM
[6] = second compound 0.316 µM, first compound 0.1 µM
[7] = second compound 0.316 µM, first compound 0.316 µM
[8] = second compound 0.316 µM, first compound 1 µM
[9] = second compound 1 µM, first compound 0.0316 µM
[10] = second compound 1 µM, first compound 0.1 µM
[11] = second compound 1 µM, first compound 0.316 µM
[12] = second compound 1 µM, first compound 1 µM
[13] = second compound 3.16 µM, first compound 0.0316 µM
[14] = second compound 3.16 µM, first compound 0.1 µM
[15] = second compound 3.16 µM, first compound 0.316 µM
[16] = second compound 3.16 µM, first compound 1 µM
[17] = second compound 10 µM, first compound 0.0316 µM
[18] = second compound 10 µM, first compound 0.1 µM
[19] = second compound 10 µM, first compound 0.316 µM
[20] = second compound 10 µM, first compound 1 µM

Structure (SMILES)	IC50 (second compound 0.1 µM) [µM]	IC50 (second compound 0.316 µM) [µM]	IC50 (second compound 1 µM) [µM]	IC50 (second compound 3.16 µM) [µM]	IC50 (second compound 10 µM) [µM]	viability, T/C [1] [%]	viability, T/C [2] [%]	viability, T/C [3] [%]	viability, T/C [4] [%]	viability, T/C [5] [%]	viability, T/C [6] [%]	viability, T/C [7] [%]	viability, T/C [8] [%]	viability, T/C [9] [%]	viability, T/C [10] [%]	viability, T/C [11] [%]	viability, T/C [12] [%]	viability, T/C [13] [%]	viability, T/C [14] [%]	viability, T/C [15] [%]	also measured
O=C(c1cc(Cc2n[nH]c(=O)c3ccccc23)ccc1F)N1CCN(C(=O)C2CC2)CC1 + CNCc1ccccc1-c1csc(C(C)Nc2nc(C)nc3cc(OC)c(OC)cc23)c1	7.08	6.81	6.1	< 0.0316	< 0.0316	105	106	97.6	86	85.7	84.3	83.2	85.3	84.7	85.3	78.9	83.2	35.1	35.4	28.4	viability, T/C (second compound 0.1 µM, first compound 3.16 µM): 65.7%; viability, T/C (second compound 0.1 µM, first compound 10 µM): 43.3%; viability, T/C (second compound 0.316 µM, first compound 3.16 µM): 65.9%; viability, T/C (second compound 0.316 µM, first compound 10 µM): 42.1%; viability, T/C (second compound 1 µM, first compound 3.16 µM): 59.5%; viability, T/C (second compound 1 µM, first compound 10 µM): 42.8%; viability, T/C [16]: 0.6%; viability, T/C (second compound 3.16 µM, first compound 3.16 µM): 42.3%; viability, T/C (second compound 3.16 µM, first compound 10 µM): 0.43%; viability, T/C [17]: 0.17%; viability, T/C [18]: 0.21%; viability, T/C [19]: 29.1%; viability, T/C [20]: 0.15%; viability, T/C (second compound 10 µM, first compound 3.16 µM): 0.14%; viability, T/C (second compound 10 µM, first compound 10 µM): 1.69%
CCN1CCN(Cc2ccc(Nc3ncc(F)c(-c4cc(F)c5nc(C)n(C(C)C)c5c4)n3)nc2)CC1 + C=CC(=O)N1CCN(c2nc(=O)n(-c3c(C)ccnc3C(C)C)c3nc(-c4c(O)cccc4F)c(F)cc23)C(C)C1	0.15	0.0395	0.501	0.543	< 0.00316	49.4	50.5	51.3	40.5	50.6	48	49.8	44.3	51.7	60	57.1	39.3	57.4	53.5	63.4	viability, T/C (second compound 0.1 µM, first compound 0.00316 µM): 58%; viability, T/C (second compound 0.1 µM, first compound 0.01 µM): 53.3%; viability, T/C (second compound 0.316 µM, first compound 0.00316 µM): 72.5%; viability, T/C (second compound 0.316 µM, first compound 0.01 µM): 69.4%; viability, T/C (second compound 1 µM, first compound 0.00316 µM): 64.9%; viability, T/C (second compound 1 µM, first compound 0.01 µM): 59.2%; viability, T/C (second compound 3.16 µM, first compound 0.00316 µM): 70.4%; viability, T/C (second compound 3.16 µM, first compound 0.01 µM): 63.6%; viability, T/C [16]: 36.9%; viability, T/C (second compound 10 µM, first compound 0.00316 µM): 51.9%; viability, T/C (second compound 10 µM, first compound 0.01 µM): 41.6%; viability, T/C [17]: 42.1%; viability, T/C [18]: 39.6%; viability, T/C [19]: 38.2%; viability, T/C [20]: 22.7%
